Counter-ions that a name gives are not always drawn.
Experiments:
[1] = when exposed to air (humidity); cited from earlier work
[2] = Water uptake (hygroscopicity) after exposure to 80% relative humidity, Karl Fisher and XRD; type: physicochemical
Experimental: The present invention further provides non hygroscopic anhydrous ziprasidone mesylate. Anhydrous ziprasidone mesylate is tested for water uptake after exposure to 80% relative humidity, at room temperature for 7 days, as summarized in the following table:
X-Ray powder diffraction data were obtained using a SCINTAG powder X-Ray diffractometer model X'TRA equipped with a solid state detector. Copper radiation of 1.5418 Å was used. A round aluminum sample holder with zero background was used. All peak positions are within ±0.2 degrees two theta. Karl Fisher analysis was performed according to the known art.
Anhydrous ziprasidone mesylate, having a tabular, and equant morphology was exposed to 80% humidity for at least 7 days at room temperature. Before the exposure, the water content was 0.5% as measured by Karl Fisher. After 7 days at 80% humidity at RT the sample contained 0.6% water as measured by Karl Fisher. Thus, there was an increase of 0.1% in the water content.

[3] = 80% RH, room temperature, 7 days

## O=C1Cc2cc(CCN3CCN(c4nsc5ccccc45)CC3)c(Cl)cc2N1 [Anhydrous ziprasidone mesylate, ziprasidone mesylate]
[1]
  hygroscopicity: hygroscopic
[2]; [3]
  Crystal form (by XRD): Anhydrous
  water Content (By KF): 0.6
[2]; 80% humidity, at least 7 days, room temperature
  change in the crystal form after the exposure: No change in the crystal form
[2]; 7 days at 80% humidity at RT vs before exposure
  increase in the water content: 0.1%
[2]; Initial, before exposure
  Crystal form (by XRD): Anhydrous
  water Content (By KF): 0.5
[2]; after 7 days at 80% humidity at RT
  water content as measured by Karl Fisher: 0.6%
[2]; before the exposure
  water content as measured by Karl Fisher: 0.5%

From patent US20060270685A1, “Anhydrous ziprasidone mesylate and a process for its preparation” (priority 2005, published 2006)
